Laboratory results taken from US11492325B2, “Compounds as inhibitors of sodium channels” (Human BioMolecular Research Institute, priority 2016, dated 2022).

Key:
[1] = Metabolic stability in human liver microsomes; type: in vitro ADME
Outline: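 Liver microsomes (rat, mouse, dog or human; 0.4-0.5 mg protein) incubated with 50 μM compound in 100 mM potassium phosphate pH 7.4 with NADPH-generating system and 3 mM MgCl2. Parent loss followed by HPLC-UV; half-life and kapp from normalized peak area versus time.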

[2] = Metabolism in human hepatic S9
[3] = Metabolism in mouse hepatic S9; conditions: 0.4 mg protein/incubation; 30 mins, 37° C.; nmol metabolism/incubation
Experimental: (§1) A typical incubation contained rat, mouse, dog or human liver microsomes (0.4-0.5 mg of protein), 100 mM potassium phosphate buffer (pH7.4), 50 μM test compound, an NADPH-generating system consisting of 0.5 mM NADP^+, 0.5 mM glucose-6-phosphate, 1 IU/mL glucose-6-phosphate dehydrogenase, 1 mg/mL diethylenetriaminepentaaceticacid (DETAPAC), and 3 mM MgCl2 in a final incubation volume of 0.25 mL. […] After centrifugation at 3000 rpm for 5 min, the organic fraction was collected, the solvent was removed with a stream of argon and the residue was reconstituted in 125 μL of MeOH and 125 μL H2O, mixed thoroughly, centrifuged at 13,000 rpm for 5 min and analyzed by high performance liquid chromatography. Samples were run on a Hitachi D-7000 HPLC system using a L-7100 analytical pump, L-7400 UV-Visible variable wavelength detector, and L-7600 automatic sample injector. […] Disappearance of the analyte was monitored over time. A plot of the area under the curve for the normalized analyte versus time afforded the half-life values and kapp.
Microsomes contain CYPs and FMO metabolic enzymes. S9 contains soluble enzymes (i.e., aldehyde oxidase, MAO, etc.).

[4] = molecular target: CYP3A5 (Homo sapiens, UniProt P20815); test: Metabolism with highly purified CYP3A5 (HPLC); conditions: 50 min incubation
Experimental: as §1
(§2) Accordingly, we examined the metabolism of leads with highly purified CYPs with an HPLC method (Example 8).

[5] = molecular target: CYP2D6 (Homo sapiens, UniProt P10635); test: Metabolism with highly purified CYP2D6 (HPLC); conditions: 50 min incubation
Experimental: as §1, §2

[6] = tested on: FMO; test: Metabolism by FMO
[7] = molecular target: CYP3A4 (Homo sapiens, UniProt P08684); test: Metabolism with highly purified CYP3A4 (HPLC)
[8] = molecular target: T1, Human FMO1 (Homo sapiens, UniProt Q01740); test: Metabolism with human FMO1 (nmol metabolism/incubation); conditions: 15 μg enzyme/incubation; 30 mins, 37° C.; nmol metabolism/incubation
T1 sequence (Q01740 1-532): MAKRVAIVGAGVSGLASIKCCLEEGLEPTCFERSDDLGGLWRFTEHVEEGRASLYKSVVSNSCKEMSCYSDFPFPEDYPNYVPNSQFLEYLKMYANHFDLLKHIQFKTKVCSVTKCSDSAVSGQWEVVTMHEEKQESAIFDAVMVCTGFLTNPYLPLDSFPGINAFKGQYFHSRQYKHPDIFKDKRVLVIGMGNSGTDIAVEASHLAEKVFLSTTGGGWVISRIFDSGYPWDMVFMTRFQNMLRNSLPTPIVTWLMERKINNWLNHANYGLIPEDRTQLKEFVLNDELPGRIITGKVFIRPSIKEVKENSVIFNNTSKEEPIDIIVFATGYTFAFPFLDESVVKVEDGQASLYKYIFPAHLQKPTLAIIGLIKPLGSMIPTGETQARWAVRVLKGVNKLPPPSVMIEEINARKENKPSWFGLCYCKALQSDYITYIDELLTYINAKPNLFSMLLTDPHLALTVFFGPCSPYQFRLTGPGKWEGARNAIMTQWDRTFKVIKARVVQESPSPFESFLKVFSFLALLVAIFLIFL

[9] = tested on: Male BALBc mice; conditions: mice, 100 mg/kg
From the text: Male BALBc mice (20-22 g) were used throughout these studies. The animals were maintained in a temperature-controlled room with 12-hr periods of light and darkness and had continuous access to water and animal food. […] Groups contained 2-4 animals.

[10] = tested on: isolated perfused aged rat heart exposed to hydrogen peroxide; test: Aged rat heart perfusion model of arrhythmia (H2O2, ex vivo); conditions: 10 μM, 30 min after perfusion, continuous H2O2 (0.1 mM)
Experimental: FIG. 1. Initiation of Early After Depolarizations-Mediated Ectopic Ventricular Beats and Ventricular Fibrillation in an Isolated Perfused Aged Rat Heart Exposed to hydrogen peroxide.
Conduction velocity (CV), action potential duration (APD) and responsiveness to drugs was measured in ex-vivo rat heart preparations (FIG. 1). We chose a rat heart model to test for the effect of (R)-82 (i.e., (R)-Dd, Example 4) to decrease arrhythmias because CV and APD are preserved in buffer-perfused rat hearts up to […]. In contrast, in this model, continuous presence (perfusion) of H2O2 (0.1 mM) produces early after depolarizations (EADs) and ectopic ventricular beats 6 min after exposure that degenerates to ventricular tachycardia (VT) and ventricular fibrillation (VF) after 12 min (FIG. 1). Left untreated, the heart would die within 45 mins. […] The conclusion is that (R)-82 is more efficacious than the currently used standard of care.

CYP3A4, sequence (P08684 whole entry): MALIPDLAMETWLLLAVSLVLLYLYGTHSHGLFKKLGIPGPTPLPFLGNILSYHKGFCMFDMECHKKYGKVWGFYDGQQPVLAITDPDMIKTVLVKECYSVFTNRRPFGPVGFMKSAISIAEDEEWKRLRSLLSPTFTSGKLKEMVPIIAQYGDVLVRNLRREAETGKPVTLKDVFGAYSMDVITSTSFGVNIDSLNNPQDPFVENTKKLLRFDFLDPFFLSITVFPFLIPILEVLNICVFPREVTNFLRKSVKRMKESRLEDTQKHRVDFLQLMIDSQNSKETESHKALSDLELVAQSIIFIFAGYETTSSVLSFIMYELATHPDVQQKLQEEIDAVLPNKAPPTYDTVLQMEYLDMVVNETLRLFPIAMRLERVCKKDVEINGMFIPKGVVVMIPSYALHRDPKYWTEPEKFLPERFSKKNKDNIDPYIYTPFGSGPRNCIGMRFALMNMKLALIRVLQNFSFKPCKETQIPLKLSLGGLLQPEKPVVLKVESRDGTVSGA
CYP2D6, sequence (P10635 whole entry): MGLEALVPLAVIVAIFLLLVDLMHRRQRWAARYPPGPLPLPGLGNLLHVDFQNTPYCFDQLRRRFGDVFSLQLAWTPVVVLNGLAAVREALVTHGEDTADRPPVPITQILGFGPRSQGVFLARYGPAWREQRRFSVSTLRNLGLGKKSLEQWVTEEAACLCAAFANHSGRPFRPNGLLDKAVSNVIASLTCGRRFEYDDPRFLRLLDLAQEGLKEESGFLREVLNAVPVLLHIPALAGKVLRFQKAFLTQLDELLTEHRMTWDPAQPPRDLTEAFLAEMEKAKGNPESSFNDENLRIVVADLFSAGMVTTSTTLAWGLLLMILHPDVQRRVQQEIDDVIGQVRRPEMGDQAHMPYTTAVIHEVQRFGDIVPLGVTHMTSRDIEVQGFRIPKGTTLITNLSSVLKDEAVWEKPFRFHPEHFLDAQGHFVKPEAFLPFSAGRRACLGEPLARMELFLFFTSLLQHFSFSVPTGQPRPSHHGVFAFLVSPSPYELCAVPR
CYP3A5, sequence (P20815 whole entry): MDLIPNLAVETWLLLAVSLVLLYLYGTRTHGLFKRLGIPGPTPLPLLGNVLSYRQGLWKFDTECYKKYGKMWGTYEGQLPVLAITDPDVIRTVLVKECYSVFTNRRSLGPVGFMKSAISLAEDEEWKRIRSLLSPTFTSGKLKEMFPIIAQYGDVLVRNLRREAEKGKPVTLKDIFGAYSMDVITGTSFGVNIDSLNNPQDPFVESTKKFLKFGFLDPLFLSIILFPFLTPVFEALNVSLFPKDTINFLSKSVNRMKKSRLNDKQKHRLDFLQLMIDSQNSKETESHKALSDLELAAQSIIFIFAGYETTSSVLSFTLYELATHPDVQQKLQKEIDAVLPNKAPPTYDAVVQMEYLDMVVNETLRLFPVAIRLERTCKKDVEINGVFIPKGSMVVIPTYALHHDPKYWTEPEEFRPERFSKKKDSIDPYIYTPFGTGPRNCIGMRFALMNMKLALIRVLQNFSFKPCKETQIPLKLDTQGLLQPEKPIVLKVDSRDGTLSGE

SMILES	metabolism in human liver microsomes judged by HPLC [1]	metabolism in human liver S-9 judged by HPLC [2]	Mouse liver S-9 (nmol/incub) [3] [nmol/incub]	nmols metabolized, CYP3A5 [4] [nmols]	pmols product/μg CYP/min, CYP3A5 [4] [pmols product/μg CYP/min]	nmols metabolized, CYP2D6 [5] [nmols]	pmols product/μg CYP/min, CYP2D6 [5] [pmols product/μg CYP/min]	metabolism by FMO [6]	Human CYP3A4 (nmol/incub) ([7]; 3 pmol enzyme/incubation, 30 mins, 37° C., nmol metabolism/incubation)	nmols metabolized, CYP3A4 ([7]; 50 min incubation) [nmols]	pmols product/μg CYP/min, CYP3A4 ([7]; 50 min incubation) [pmols product/μg CYP/min]	Human FMO1 (nmol/incub) [8] [nmol/incub]	Liver Microsomes T1/2 ([1]; human, microsomes) [h]	Liver S-9, remaining after 1 hr ([2]; human, s9, 1 h) [% after 1 hr]	Behavior Effect (R)-enantiomer [9]	behavioral effects at 100 mg/kg ([9]; enantiomers)	resolution of arrhythmias [10]
Cc1cccc(C)c1OCC(C)N (racemic) [Mexiletine, reference compound]	not metabolized very extensively	not metabolized very extensively	5.2	34.2	48.8	4.04	6.0	metabolized by FMO	3.0	32.4	46.2	6.7					
Cl.NC(COc1ccccc1C(F)(F)F)c1ccccc1 (stereo in doubt) [(R)-82]													2.27	>95	No detectable effect	no apparent behavioral effects	complete resolution of all forms of arrhythmias to normal sinus rhythm
